# Counter-ions that a name gives are not always drawn. Like-named read-outs stand apart in the source and are kept apart here.
# Tests used:
# Assay in all cases: AK assay 384-well format, Prestwick library screening
# E. faecium = type: cell-based, Enterococcus faecium; settings: 50 μM final drug concentration; for fold induction at 50 µM: Enterococcus faecium, 3 h
# E. coli = type: cell-based, Escherichia coli; settings: 50 μM final drug concentration; for fold induction at 50 µM: Escherichia coli, 3 h
# [1] = system: A. baumannii strain 98-37-09; type: cell-based, Acinetobacter baumannii; settings: 50 μM final drug concentration; for fold induction at 50 µM: Acinetobacter baumannii, 983709, 3 h
# K. pneumoniae = type: cell-based, Klebsiella pneumoniae; settings: 50 μM final drug concentration; for fold induction at 50 µM: Klebsiella pneumoniae, 3 h
# [2] = system: S. aureus strain USA300-0114; type: cell-based, Staphylococcus aureus; settings: 50 μM final drug concentration; for fold induction at 50 µM: Staphylococcus aureus, USA300, 3 h
# E. cloacae = type: cell-based, Enterobacter cloacae; settings: 50 μM final drug concentration; for fold induction at 50 µM: Enterobacter cloacae, 3 h
# P. aeruginosa = type: cell-based, Pseudomonas aeruginosa; settings: 50 μM final drug concentration; for fold induction at 50 µM: Pseudomonas aeruginosa, 3 h
# [3] = planktonic E. coli, 384-well, cutoff for positive-scoring molecules 3-fold increase, read-out: AK-based Prestwick Library Screening Results: E. coli (increase in extracellular AK activity)
compound,measurement,setting,value
O=c1ccc2cc(O[C@@H]3O[C@H](CO)[C@@H](O)[C@H](O)[C@H]3O)c(O)cc2o1 [Esculin Hydrate],fold induction at 50 µM,"E. faecium; planktonic, […], read-out: AK-based Prestwick Library Screening Results, E. faecium (fold increase in extracellular AK activity)",0.9
same,fold induction at 50 µM,"E. coli; planktonic, […], read-out: AK-based Prestwick Library Screening Results, E. coli (fold increase in extracellular AK activity)",0.7
same,fold induction at 50 µM,"[1]; planktonic, […], read-out: AK-based Prestwick Library Screening Results, A. baumannii (fold increase in extracellular AK activity)",0.8
same,fold induction at 50 µM,"K. pneumoniae; planktonic, […], read-out: AK-based Prestwick Library Screening Results, K. pneumoniae (fold increase in extracellular AK activity)",0.6
same,fold induction at 50 µM,"[2]; planktonic, […], read-out: AK-based Prestwick Library Screening Results, S. aureus (fold increase in extracellular AK activity)",0.7
same,fold induction at 50 µM,"E. cloacae; planktonic, […], read-out: AK-based Prestwick Library Screening Results, E. cloacae (fold increase in extracellular AK activity)",0.9
same,fold induction at 50 µM,"P. aeruginosa; planktonic, […], read-out: AK-based Prestwick Library Screening Results, P. aeruginosa (fold increase in extracellular AK activity)",0.8
Mephentermine hemisulfate,"AK-based Prestwick Library Screening Results, E. faecium (fold increase in extracellular AK activity)","E. faecium; planktonic, […]",0.8
same,"AK-based Prestwick Library Screening Results, E. coli (fold increase in extracellular AK activity)","E. coli; planktonic, […]",0.5
same,"AK-based Prestwick Library Screening Results, A. baumannii (fold increase in extracellular AK activity)","[1]; planktonic, […]",0.4
same,"AK-based Prestwick Library Screening Results, K. pneumoniae (fold increase in extracellular AK activity)","K. pneumoniae; planktonic, […]",0.5
same,"AK-based Prestwick Library Screening Results, S. aureus (fold increase in extracellular AK activity)","[2]; planktonic, […]",0.4
same,"AK-based Prestwick Library Screening Results, E. cloacae (fold increase in extracellular AK activity)","E. cloacae; planktonic, […]",0.4
same,"AK-based Prestwick Library Screening Results, P. aeruginosa (fold increase in extracellular AK activity)","P. aeruginosa; planktonic, […]",0.4
Cc1c(N)c(=O)n(-c2ccccc2)n1C [Ampyrone],fold induction at 50 µM,"E. faecium; 384-well format, cutoff for positive-scoring molecules 3-fold increase, read-out: AK-based Prestwick Library Screening Results, E. faecium (increase in extracellular AK activity)",1
same,fold induction at 50 µM,"E. coli; 384-well format, cutoff for positive-scoring molecules 3-fold increase, read-out: AK-based Prestwick Library Screening Results, E. coli (increase in extracellular AK activity)",0.9
same,fold induction at 50 µM,"[1]; 384-well format, cutoff for positive-scoring molecules 3-fold increase, read-out: AK-based Prestwick Library Screening Results, A. baumannii (increase in extracellular AK activity)",0.9
same,fold induction at 50 µM,"K. pneumoniae; 384-well format, cutoff for positive-scoring molecules 3-fold increase, read-out: AK-based Prestwick Library Screening Results, K. pneumoniae (increase in extracellular AK activity)",0.7
same,fold induction at 50 µM,"[2]; 384-well format, cutoff for positive-scoring molecules 3-fold increase, read-out: AK-based Prestwick Library Screening Results, S. aureus (increase in extracellular AK activity)",0.8
same,fold induction at 50 µM,"E. cloacae; 384-well format, cutoff for positive-scoring molecules 3-fold increase, read-out: AK-based Prestwick Library Screening Results, E. cloacae (increase in extracellular AK activity)",1
same,fold induction at 50 µM,"P. aeruginosa; 384-well format, cutoff for positive-scoring molecules 3-fold increase, read-out: AK-based Prestwick Library Screening Results, P. aeruginosa (increase in extracellular AK activity)",1
Cc1cc(N)c2ccccc2[n+]1CCCCCCCCCC[n+]1c(C)cc(N)c2ccccc21 [Dequalinium dichloride],fold induction at 50 µM,"E. faecium; planktonic, cutoff for positive 3-fold increase, read-out: AK-based Prestwick Library Screening Results, E. faecium (fold increase in extracellular AK activity)",1.1
same,fold induction at 50 µM,"E. coli; planktonic, cutoff for positive 3-fold increase, read-out: AK-based Prestwick Library Screening Results, E. coli (fold increase in extracellular AK activity)",3
same,fold induction at 50 µM,"[1]; planktonic, cutoff for positive 3-fold increase, read-out: AK-based Prestwick Library Screening Results, A. baumannii (fold increase in extracellular AK activity)",3.2
same,fold induction at 50 µM,"K. pneumoniae; planktonic, cutoff for positive 3-fold increase, read-out: AK-based Prestwick Library Screening Results, K. pneumoniae (fold increase in extracellular AK activity)",1.6
same,fold induction at 50 µM,"[2]; planktonic, cutoff for positive 3-fold increase, read-out: AK-based Prestwick Library Screening Results, S. aureus (fold increase in extracellular AK activity)",1.2
same,fold induction at 50 µM,"E. cloacae; planktonic, cutoff for positive 3-fold increase, read-out: AK-based Prestwick Library Screening Results, E. cloacae (fold increase in extracellular AK activity)",1.8
same,fold induction at 50 µM,"P. aeruginosa; planktonic, cutoff for positive 3-fold increase, read-out: AK-based Prestwick Library Screening Results, P. aeruginosa (fold increase in extracellular AK activity)",2.3
CC1(C)S[C@@H]2[C@H](NC(=O)Cc3ccccc3)C(=O)N2[C@H]1C(=O)O [Benzylpenicillin sodium],fold induction at 50 µM,"E. faecium; planktonic E. faecium, positive cutoff 3-fold increase, read-out: AK-based Prestwick library screening result, E. faecium (fold increase in extracellular AK activity)",1.7
same,fold induction at 50 µM,"E. coli; planktonic E. coli, positive cutoff 3-fold increase, read-out: AK-based Prestwick library screening result, E. coli (fold increase in extracellular AK activity)",11.3
same,fold induction at 50 µM,"[1]; planktonic A. baumannii, positive cutoff 3-fold increase, read-out: AK-based Prestwick library screening result, A. baumannii (fold increase in extracellular AK activity)",2.9
same,fold induction at 50 µM,"K. pneumoniae; planktonic K. pneumoniae, positive cutoff 3-fold increase, read-out: AK-based Prestwick library screening result, K. pneumoniae (fold increase in extracellular AK activity)",0.6
same,fold induction at 50 µM,"[2]; planktonic S. aureus, positive cutoff 3-fold increase, read-out: AK-based Prestwick library screening result, S. aureus (fold increase in extracellular AK activity)",0.8
same,fold induction at 50 µM,"E. cloacae; planktonic E. cloacae, positive cutoff 3-fold increase, read-out: AK-based Prestwick library screening result, E. cloacae (fold increase in extracellular AK activity)",1.2
same,fold induction at 50 µM,"P. aeruginosa; planktonic P. aeruginosa, positive cutoff 3-fold increase, read-out: AK-based Prestwick library screening result, P. aeruginosa (fold increase in extracellular AK activity)",0.7
NCCc1c[nH]c2ccc(O)cc12 [Serotonin hydrochloride],fold induction at 50 µM,"E. faecium; planktonic E. faecium, 384-well, […], read-out: AK-based Prestwick Library Screening Results: E. faecium (increase in extracellular AK activity)",0.9
same,fold induction at 50 µM,E. coli; [3],0.8
same,fold induction at 50 µM,"[1]; planktonic A. baumannii, 384-well, […], read-out: AK-based Prestwick Library Screening Results: A. baumannii (increase in extracellular AK activity)",0.6
same,fold induction at 50 µM,"K. pneumoniae; planktonic K. pneumoniae, 384-well, […], read-out: AK-based Prestwick Library Screening Results: K. pneumoniae (increase in extracellular AK activity)",0.6
same,fold induction at 50 µM,"[2]; planktonic S. aureus, 384-well, […], read-out: AK-based Prestwick Library Screening Results: S. aureus (increase in extracellular AK activity)",0.6
same,fold induction at 50 µM,"E. cloacae; planktonic E. cloacae, 384-well, […], read-out: AK-based Prestwick Library Screening Results: E. cloacae (increase in extracellular AK activity)",0.6
same,fold induction at 50 µM,"P. aeruginosa; planktonic P. aeruginosa, 384-well, […], read-out: AK-based Prestwick Library Screening Results: P. aeruginosa (increase in extracellular AK activity)",0.6
Cc1cc(C(C)(C)C)c(O)c(C)c1CC1=NCCN1 [Oxymetazoline hydrochloride],fold induction at 50 µM,"E. faecium; planktonic E. faecium, 384-well, cutoff for positive-scoring molecules 3-fold increase, read-out: AK-based Prestwick Library Screening Results: E. faecium (increase in extracellular AK activity)",1
same,fold induction at 50 µM,E. coli; [3],1.1
same,fold induction at 50 µM,"[1]; planktonic A. baumannii, 384-well, cutoff for positive-scoring molecules 3-fold increase, read-out: AK-based Prestwick Library Screening Results: A. baumannii (increase in extracellular AK activity)",1.4
same,fold induction at 50 µM,"K. pneumoniae; planktonic K. pneumoniae, 384-well, cutoff for positive-scoring molecules 3-fold increase, read-out: AK-based Prestwick Library Screening Results: K. pneumoniae (increase in extracellular AK activity)",1.1
same,fold induction at 50 µM,"[2]; planktonic S. aureus, 384-well, cutoff for positive-scoring molecules 3-fold increase, read-out: AK-based Prestwick Library Screening Results: S. aureus (increase in extracellular AK activity)",1.1
same,fold induction at 50 µM,"E. cloacae; planktonic E. cloacae, 384-well, cutoff for positive-scoring molecules 3-fold increase, read-out: AK-based Prestwick Library Screening Results: E. cloacae (increase in extracellular AK activity)",1.3
same,fold induction at 50 µM,"P. aeruginosa; planktonic P. aeruginosa, 384-well, cutoff for positive-scoring molecules 3-fold increase, read-out: AK-based Prestwick Library Screening Results: P. aeruginosa (increase in extracellular AK activity)",1.2
"Cc1n[nH]c(=O)[nH]c1=O [Azathymine, 6]",AK-based Prestwick Library Screening Results: E. faecium (increase in extracellular AK activity),"E. faecium; planktonic E. faecium, 384-well, cutoff for positive-scoring molecules 3-fold increase",0.9
same,AK-based Prestwick Library Screening Results: E. coli (increase in extracellular AK activity),"E. coli; planktonic E. coli, 384-well, […]",0.6
same,AK-based Prestwick Library Screening Results: A. baumannii (increase in extracellular AK activity),"[1]; planktonic A. baumannii, 384-well, cutoff for positive-scoring molecules 3-fold increase",0.5
same,AK-based Prestwick Library Screening Results: K. pneumoniae (increase in extracellular AK activity),"K. pneumoniae; planktonic K. pneumoniae, 384-well, cutoff for positive-scoring molecules 3-fold increase",0.5
same,AK-based Prestwick Library Screening Results: S. aureus (increase in extracellular AK activity),"[2]; planktonic S. aureus, 384-well, cutoff for positive-scoring molecules 3-fold increase",0.4
same,AK-based Prestwick Library Screening Results: E. cloacae (increase in extracellular AK activity),"E. cloacae; planktonic E. cloacae, 384-well, cutoff for positive-scoring molecules 3-fold increase",0.6
same,AK-based Prestwick Library Screening Results: P. aeruginosa (increase in extracellular AK activity),"P. aeruginosa; planktonic P. aeruginosa, 384-well, cutoff for positive-scoring molecules 3-fold increase",0.6
CC(C)C[C@H]1C(=O)N2CCC[C@H]2[C@]2(O)O[C@](NC(=O)[C@@H]3C=C4c5cccc6[nH]cc(c56)C[C@H]4N(C)C3)(C(C)C)C(=O)N12 [Ergocryptine-alpha],"AK-based Prestwick Library Screening Results, E. faecium (fold increase in extracellular AK activity)","E. faecium; planktonic, […]",0.7
same,"AK-based Prestwick Library Screening Results, E. coli (fold increase in extracellular AK activity)","E. coli; planktonic, […]",0.4
same,"AK-based Prestwick Library Screening Results, A. baumannii (fold increase in extracellular AK activity)","[1]; planktonic, […]",0.5
same,"AK-based Prestwick Library Screening Results, K. pneumoniae (fold increase in extracellular AK activity)","K. pneumoniae; planktonic, […]",0.5
same,"AK-based Prestwick Library Screening Results, S. aureus (fold increase in extracellular AK activity)","[2]; planktonic, […]",0.2
same,"AK-based Prestwick Library Screening Results, E. cloacae (fold increase in extracellular AK activity)","E. cloacae; planktonic, […]",0.4
same,"AK-based Prestwick Library Screening Results, P. aeruginosa (fold increase in extracellular AK activity)","P. aeruginosa; planktonic, […]",0.4

# Source: patent publication US10004701B2, “Methods and compositions for treating infection” (UNIVERSITY OF ROCHESTER, priority 2012, dated 2018)
